Data as given in ChEMBL document CHEMBL2073996, “Increased bioavailability of the food-derived carcinogen 2-amino-1-methyl-6-phenylimidazo[4,5-b]pyridine in MRP2-deficient rats” (Mol Pharmacol, 2001).

Target: ATP-binding cassette sub-family C member 2 (Homo sapiens, UniProt Q92887)
Test: TP_TRANSPORTER: transepithelial transport (basal to apical) in MRP2-expressing MDCKII cells
Assay type: functional, cell-based
Conditions: dog, mdck-ii

ATP-binding cassette sub-family C member 2, sequence (Q92887 whole entry): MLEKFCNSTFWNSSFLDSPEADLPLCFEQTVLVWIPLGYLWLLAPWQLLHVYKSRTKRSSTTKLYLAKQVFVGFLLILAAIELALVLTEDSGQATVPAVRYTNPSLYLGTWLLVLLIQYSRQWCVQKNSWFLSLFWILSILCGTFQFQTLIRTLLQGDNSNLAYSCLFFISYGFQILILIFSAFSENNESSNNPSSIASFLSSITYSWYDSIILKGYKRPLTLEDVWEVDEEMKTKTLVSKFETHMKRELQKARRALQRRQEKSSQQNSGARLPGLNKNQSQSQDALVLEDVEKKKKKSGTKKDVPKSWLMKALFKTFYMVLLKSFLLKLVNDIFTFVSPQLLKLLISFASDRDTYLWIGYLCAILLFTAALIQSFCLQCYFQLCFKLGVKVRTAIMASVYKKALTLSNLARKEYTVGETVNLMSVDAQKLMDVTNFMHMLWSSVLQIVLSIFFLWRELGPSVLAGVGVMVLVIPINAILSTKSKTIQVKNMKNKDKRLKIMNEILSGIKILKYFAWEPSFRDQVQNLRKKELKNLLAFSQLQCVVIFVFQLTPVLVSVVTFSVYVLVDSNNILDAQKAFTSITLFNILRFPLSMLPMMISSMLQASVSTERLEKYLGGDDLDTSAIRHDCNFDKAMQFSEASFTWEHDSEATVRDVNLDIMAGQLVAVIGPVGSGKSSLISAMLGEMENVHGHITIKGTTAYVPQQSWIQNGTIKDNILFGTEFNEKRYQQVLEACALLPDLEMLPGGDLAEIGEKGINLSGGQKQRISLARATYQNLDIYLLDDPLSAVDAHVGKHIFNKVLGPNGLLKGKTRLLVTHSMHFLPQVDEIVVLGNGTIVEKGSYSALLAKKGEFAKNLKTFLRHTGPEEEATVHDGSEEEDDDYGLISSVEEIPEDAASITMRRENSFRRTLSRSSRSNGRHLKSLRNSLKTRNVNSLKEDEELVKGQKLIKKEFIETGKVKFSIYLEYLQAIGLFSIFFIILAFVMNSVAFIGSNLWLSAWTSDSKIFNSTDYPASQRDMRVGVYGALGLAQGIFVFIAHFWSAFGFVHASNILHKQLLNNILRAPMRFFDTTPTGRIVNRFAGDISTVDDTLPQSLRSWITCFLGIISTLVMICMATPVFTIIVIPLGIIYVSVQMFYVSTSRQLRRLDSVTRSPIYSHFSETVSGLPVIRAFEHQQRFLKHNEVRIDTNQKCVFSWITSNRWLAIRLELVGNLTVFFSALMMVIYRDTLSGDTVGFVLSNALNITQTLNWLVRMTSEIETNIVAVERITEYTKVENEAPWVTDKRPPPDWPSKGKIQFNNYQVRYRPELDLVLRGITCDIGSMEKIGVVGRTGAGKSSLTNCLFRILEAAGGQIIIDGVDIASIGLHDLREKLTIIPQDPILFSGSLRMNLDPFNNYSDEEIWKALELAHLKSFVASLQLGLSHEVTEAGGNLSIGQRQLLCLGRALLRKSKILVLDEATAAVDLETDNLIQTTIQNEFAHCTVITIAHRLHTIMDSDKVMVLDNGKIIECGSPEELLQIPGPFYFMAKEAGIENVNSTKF

`Cn1c(N)nc2ncc(-c3ccccc3)cc21` [2-AMINO-1-METHYL-6- PHENYLIMIDAZO[4,5- B]PYRIDINE] was tested. Which Activity did it give?
Its Activity is “substrate [+]”.
